From ChEMBL document CHEMBL2074289, “Inhibition of the human organic anion transporter 1 by the caffeine metabolite 1-methylxanthine” (Biochem Biophys Res Commun, 2004) come the findings set out here.

The data set addresses T1, OAT1 (Solute carrier family 22 member 6, SLC22A6) (Homo sapiens, UniProt Q4U2R8).
T1 sequence (Q4U2R8 whole entry): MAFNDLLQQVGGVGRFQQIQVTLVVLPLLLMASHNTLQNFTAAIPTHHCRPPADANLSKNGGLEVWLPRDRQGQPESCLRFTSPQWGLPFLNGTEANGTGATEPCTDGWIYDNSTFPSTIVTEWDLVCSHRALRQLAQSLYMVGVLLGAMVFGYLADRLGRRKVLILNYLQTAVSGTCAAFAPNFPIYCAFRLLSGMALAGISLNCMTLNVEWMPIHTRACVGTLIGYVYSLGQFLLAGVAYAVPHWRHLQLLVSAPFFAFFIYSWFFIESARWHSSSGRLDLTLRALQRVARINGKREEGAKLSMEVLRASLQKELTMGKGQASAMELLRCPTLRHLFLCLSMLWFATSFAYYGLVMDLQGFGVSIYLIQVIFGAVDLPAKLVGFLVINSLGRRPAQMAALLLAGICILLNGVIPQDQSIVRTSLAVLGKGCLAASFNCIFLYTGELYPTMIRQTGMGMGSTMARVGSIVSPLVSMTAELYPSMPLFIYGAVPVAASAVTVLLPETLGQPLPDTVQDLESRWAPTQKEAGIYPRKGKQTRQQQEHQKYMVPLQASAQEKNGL
The data set is described as follows: TP_TRANSPORTER: inhibition of 6-Carboxyfluorescein uptake by 1-methylxanthine at a concentration of 500uM in OAT1-expressing cell. It counts as functional. Details: scale not given: the % may be the effect or the level left. Conditions: OAT1-expressing cells, probe 6-Carboxyfluorescein; read-out: Activity.

In the case of `Cn1c(=O)[nH]c2nc[nH]c2c1=O` [1-METHYLXANTHINE], the activity at 500 µM worked out at 50%.
